Assay results as given in ChEMBL document CHEMBL1212740, “Long-lasting enfuvirtide carrier pentasaccharide conjugates with potent anti-human immunodeficiency virus type 1 activity” (Antimicrob Agents Chemother, 2010).

Columns and labels:
[1] = system: Human immunodeficiency virus 1; test: Antiviral activity against HIV1 ETH2220 in human PBMC assessed as p24 antigen level by ELISA; format: functional, organism-based; details: Human immunodeficiency virus 1, ETH2220
[2] = system: Human immunodeficiency virus 1; test: Antiviral activity against HIV1 UG273 clade A, R5 in human PBMC assessed as p24 antigen level by ELISA; format: functional, organism-based; details: Human immunodeficiency virus 1, UG273
[3] = system: Human immunodeficiency virus 1; test: Antiviral activity against HIV1 strain I-2496 in human PBMC assessed as p24 antigen level by ELISA; format: functional, organism-based; details: Human immunodeficiency virus 1, I-2496
[4] = system: Human immunodeficiency virus 1; test: Antiviral activity against HIV1 NL4.3 in human PBMC assessed as p24 antigen level by ELISA; format: functional, organism-based; details: Human immunodeficiency virus 1, NL4.3
[5] = system: Human immunodeficiency virus 1; test: Antiviral activity against HIV1 Ba-L in human PBMC assessed as p24 antigen level by ELISA; format: functional, organism-based; details: Human immunodeficiency virus 1, Ba-L
[6] = system: Human immunodeficiency virus 1; test: Antiviral activity against HIV1 DJ259 in human PBMC assessed as p24 antigen level by ELISA; format: functional, organism-based; details: Human immunodeficiency virus 1, DJ259
[7] = system: Human immunodeficiency virus 1; test: Antiviral activity against HIV1 US2 clade B, R5 in human PBMC assessed as p24 antigen level by ELISA; format: functional, organism-based; details: Human immunodeficiency virus 1, US2
[8] = system: Human immunodeficiency virus 1; test: Antiviral activity against HIV1 BZ167 in human PBMC assessed as p24 antigen level by ELISA; format: functional, organism-based; details: Human immunodeficiency virus 1, BZ167
[9] = Elimination half life in Wister rat at 4 mg/ kg, iv; format: ADME, organism-based; set-up: dose 4 mg/ kg, route intravenous; details: Wistar, in vivo
[10] = system: Human immunodeficiency virus 1; test: Antiviral activity against HIV1 3B/LA1 infected in HUT-78 cells co-cultured with uninfected human SupT1 CD4+ T-cell assessed as inhibition of envelope mediated cell-cell fusion after 16-20 hrs by cell-cell fusion assay; format: functional, organism-based; details: Human immunodeficiency virus 1, 3B/LA1, HuT78
[11] = system: Human immunodeficiency virus 1; test: Antiviral activity against HIV1 3B/LA1 infected in human CD4+ T-cell assessed as inhibition of giant cell formation; format: functional, organism-based; details: Human immunodeficiency virus 1, 3B/LA1, CD4+ T cell
PBMC = test: Cytotoxicity against human PBMC up to 100 uM by MTS assay; format: cell-based
CCRF-CEM = test: Cytotoxicity against human CEM cells up to 100 uM by MTS assay; format: cell-based
[12] = system: Human immunodeficiency virus 2; test: Antiviral activity against Human immunodeficiency virus 2 ROD infected in human CD4+ T-cell assessed as inhibition of giant cell formation; format: functional, organism-based; details: Human immunodeficiency virus 2, ISOLATE ROD

Row | EC50 [1] [nM] | EC50 [2] [nM] | EC50 [3] [nM] | EC50 [4] [nM] | EC50 [5] [nM] | EC50 [6] [nM] | EC50 [7] [nM] | EC50 [8] [nM] | Compound | half-life [9] [min] | EC50 [10] [nM] | EC50 [11] [nM] | Activity (PBMC) | Activity (CCRF-CEM) | EC50 [12] [nM]
1 | > 1000 | > 1000 | > 1000 | 3.6 | > 1000 | > 1000 | > 1000 | 18.5 | c1cc(CN2CCCNCCNCCCNCC2)ccc1CN1CCCNCCNCCCNCC1 [PLERIXAFOR] | – | – | – | – | – | –
2 | 3.6 | 2.6 | 0.4 | > 1000 | 3.8 | 3.7 | 0.3 | > 1000 | Cc1nnc(C(C)C)n1[C@H]1C[C@H]2CC[C@@H](C1)N2CC[C@H](NC(=O)C1CCC(F)(F)CC1)c1ccccc1 [MARAVIROC] | – | – | – | – | – | –

Row | Compound | EC50 [1] [nM] | EC50 [2] [nM] | EC50 [3] [nM] | EC50 [4] [nM] | EC50 [5] [nM] | EC50 [6] [nM] | EC50 [7] [nM] | EC50 [8] [nM] | half-life [9] [min] | EC50 [10] [nM] | EC50 [11] [nM] | Activity (PBMC) | Activity (CCRF-CEM) | EC50 [12] [nM]
3 | enfuvirtide | 17.7 | 55.9 | 12.4 | 3.6 | 17.9 | 17.9 | 6.3 | 17.9 | 168 | 275 | 3 | Toxic | Toxic | 360
